Results published in paper PMC10660337, “Mutate and Conjugate: A Method to Enable Rapid In-Cell Target Validation” (ACS Chemical Biology, 2023).
Where “and” joins values, the source holds several entries; their conditions need not be identical. Equal entries are not always repeated. Entries after “also recorded” stand apart in the source; their conditions may differ.

Legend:
BRD4(1)^L94C [1] = target: T1, BRD4(1)^L94C (Homo sapiens, UniProt O60885, L94C); test: Protein LCMS labeling assay 1; type: binding
T1 construct: Characterization of His6-BRD4(1)L94C; made in house; host or cells: E. coli BL21 (DE3)
Procedure: The resulting library of 22 fragments was screened for BRD4(1)^L94C binding at a concentration of 50 μM using a protein LCMS assay (referred to as “labeling assay 1”). […] To assess the selectivity of the fragments for the labeling of C94, hits were also screened against BRD4(1)^WT under the same conditions. […] The acrylamide-based fragment, 12, labeled 98% of BRD4(1)^L94C after 4 h. While 95% of the protein was labeled once, 3% of the protein was labeled twice (Figure 5D). […] Fragment 14, designed by appending a β-dimethylaminomethyl acrylamide to the structure of 12, led to 74% of singly labeled BRD4(1)^L94C after 4 h with no labeling of BRD4(1)^WT observed (Table 1 and Figure 5E). […] However, only 9.9% of labeled BRD4(1)^L94C was observed, substantially lower than the 56% labeling observed for the corresponding 3-methyl regioisomer 10 (Table 1). […]
Assays were performed in 1.5 mL Eppendorf tubes at 37 °C and gently shaken, unless otherwise stated.
Experiments were performed in a protein LCMS assay buffer, with 10 µM protein, and 50 µM of the desired compound with a final DMSO concentration of 0.5% (Table S16). Time points were taken at 0, 1 and 4 h, unless otherwise stated, where a 20 µL sample of the reaction mix was taken, diluted with 100 µL Milli-Q water, and flash frozen. Samples were thawed immediately prior to LCMS analysis on a Waters Xevo G2-S system (Waters) fitted with a ProSwift™ RP-2H PSDVB Reversed Phase HPLC Column (Thermofisher). Data was analysed and processed using MassLynx. The total ion chromatograms (TIC) were extracted (region containing protein) and the summed scans were deconvoluted (using MaxEnt). Covalent labeling was calculated using intensities of the unlabeled and labeled protein (Equation 1). Figures were made using GraphPad Prism 7.0.
Table S16. Buffer composition for protein LCMS.
Buffer Reagent Composition Amount per 1 L
Protein LCMS Assay Buffer HEPES 25 mM 6.0 g
Protein Labelling = Intensity of Labelled Peak × 100

BRD4(1)^L94C [2] = target: T1, BRD4(1)^L94C; test: Fluorescent labeling of purified protein (CuAAC with TAMRA-PEG3-azide, in-gel fluorescence); type: binding; details: 50 μM probe, 10 μM protein, 4 h, 37 °C, then CuAAC 1 h
Procedure: When 28, 29, 30, and 42 were incubated with either purified BRD4(1)^L94C or BRD4(1)^WT and subjected to a copper(I)-catalyzed alkyne–azide click reaction (CuAAC) reaction with the fluorescent TAMRA-PEG3-azide dye, all clickable probes labeled the mutant protein and could be visualized using fluorescence imaging of a gel (Figure 6).
Figure 6 Clickable probes 28, 29, 30, and 42 covalently label BRD4(1)^L94C and undergo a subsequent CuAAC reaction with TAMRA-PEG3 azide to fluorescently label the protein, as shown by in-gel fluorescence imaging. Compounds 28, 29, 30, 41, and 42 (50 μM) were incubated with purified BRD4(1)^L94C or BRD4(1)^WT (10 μM) for 4 h at 37 °C, followed by CuAAC reaction with TAMRA-PEG3 azide for 1 h and separation of components by SDS-PAGE. For all compounds other than 30, only labeling of BRD4(1)^L94C was observed. […]
Fluorescent labeling of purified proteins
Assays were performed in 1.5 mL Eppendorf tubes at 37 °C, and gently shaken, unless otherwise stated.
The desired click probe (50 µM) was incubated with protein (10 µM) in protein LCMS buffer for 4 h, after which TAMRA-PEG3-Azide (200 µM), TCEP·HCl (1 mM), TBTA (100 µM), and CuSO4 (1 mM) were added and incubated for a further 1 h at room temperature in the dark. A 25 µL sample of the […]
(§1) reaction mix was taken and 8 µL of Lamelli buffer added, and the samples denatured by heating at 95 °C for 10 min. Samples were separated by gel electrophoresis on NuPAGE™ 4–12%, Bis-Tris precast polyacrylamide gels (Thermofisher). Following electrophoresis, gels were stained for 15 min with InstantBlueTM Coomasie® stain (Abcam), destained, and imaged using Bio-rad molecular imager.
Bio-rad Image Lab 6.1 was used to process the data. […]
InstantBlueTM Coomasie® stain (Abcam), destained, and imaged using Bio-rad molecular imager. […]
(§2) MEM media. Cells were then harvested and lysed using the previously described protocol above. […]

[3] = tested on: T2, BRD4(1)^L94C transiently expressed in HEK293T cells; test: In-cell labeling by clickable probes, in-gel fluorescence; type: cell-based, human
T2 construct: the L94C mutation in the first bromodomain of BRD4 [BRD4(1)]; StrepII; expressed in transfected cells; host or cells: HEK293T
Procedure: (§3) To evaluate proteome-wide selectivity of the clickable probes, HEK293T cells transiently expressing BRD4(1)^L94C or BRD4(1)^WT were incubated with 10 μM of probes 28–30 and 42 for 1 h before the cells were lysed and the CuAAC reaction with TAMRA-PEG3-azide was conducted (Figure 7A). […]
as §1
(§4) Bio-rad Image Lab 6.1 was used to process the data.
(§5) In-cell target engagement
(§6) In-cell labeling by clickable probes
(§7) Transfected HEK293T cells at ~90% confluency were incubated for 1 h with a DMSO control (0.5% DMSO final concentration) or a click probe (10 µM, 0.5% DMSO final concentration) diluted in Opti- […]
Cells were then harvested and lysed using the previously described protocol above. The resulting cell lysates were diluted to 2 mg/mL using the previously described protocol above.
Cell lysates (50 µL) were then incubated with TAMRA-PEG3-Azide (200 µM), TCEP·HCl (2 mM), TBTA (200 µM), and CuSO4 (2 mM), for 1 h at rt in the dark. Samples were then prepared and separated by gel electrophoresis using the previously described protocol above.
Gels were imaged for fluorescence using Bio-rad molecular imager and then stained for 15 min with InstantBlueTM Coomasie® stain (Abcam), destained, and imaged using Bio-rad molecular imager.
Typically, the very bottom of the gel was removed prior to imaging due to residual, unreacted, TAMRA-PEG3-Azide, which would cause oversaturation and poor image quality. […]
as §2

[4] = tested on: endogenous proteins of HEK293T cells; test: In-cell proteome-wide selectivity of clickable probes; type: cell-based, human; details: 10 μM probe, 1 h, live HEK293T cells expressing BRD4(1)^L94C or BRD4(1)^WT
Procedure: as §3, §1, §4, §5, §6, §7
Cells were then harvested and lysed using the previously described protocol above. The resulting cell lysates were diluted to 2 mg/mL using the previously described protocol above. […]
Gels were imaged for fluorescence using Bio-rad molecular imager and then stained for 15 min with InstantBlueTM Coomasie® stain (Abcam), destained, and imaged using Bio-rad molecular imager. […]

[5] = 50 μM compound, 10 µM protein, 37 °C, mean of three ± s.e.m., ND = not detectable

Labeled Protein (%) L94C 1 h (BRD4(1)^L94C [1]; [5])	Labeled Protein (%) L94C 4 h (BRD4(1)^L94C [1]; 50 μM compound, 10 µM protein, 37 °C, 4 h, mean of three ± s.e.m., ND = not detectable)	Labeling of purified BRD4(1)^L94C, in-gel fluorescence (BRD4(1)^L94C [2])	Second labeling event, share of total labeled protein (BRD4(1)^L94C [1]; labeling assay 1, 50 μM)	Structure (SMILES)	Dose dependence of in-cell BRD4(1)^L94C labeling ([3]; 1 to 10 μM)	Time dependence of in-cell BRD4(1)^L94C labeling ([3]; time course 0.5–4 h)	Proteome-wide selectivity / off-target binding to endogenous proteins [4]	In-cell BRD4(1)^L94C engagement (fluorescent band ∼49 kDa) ([3]; 10 μM probe, 1 h)
37% and 37 ± 1.2%	82% and 82 ± 1.1%	high levels		C#CCOc1cc(NC(=O)C=C)ccc1N1CCCC1=O [Compound 42]	dose dependent	time-dependent	exquisite proteome-wide selectivity; also recorded: almost complete selectivity	
96 ± 0.2%		high levels	3%	C#CCOc1ccc(-c2c(C)noc2NC(=O)C=C)cc1 [Compound 30]			low cellular selectivity	highest level of BRD4(1)^L94C engagement
